Data from patent US11427548B2 (Arvinas Operations, Inc., priority 2015, dated 2022).

Target: T1, Androgen Receptor (Homo sapiens, UniProt P10275)
T1 construct: endogenous in cells; host or cells: VCaP cells
T1 sequence (P10275 1-920): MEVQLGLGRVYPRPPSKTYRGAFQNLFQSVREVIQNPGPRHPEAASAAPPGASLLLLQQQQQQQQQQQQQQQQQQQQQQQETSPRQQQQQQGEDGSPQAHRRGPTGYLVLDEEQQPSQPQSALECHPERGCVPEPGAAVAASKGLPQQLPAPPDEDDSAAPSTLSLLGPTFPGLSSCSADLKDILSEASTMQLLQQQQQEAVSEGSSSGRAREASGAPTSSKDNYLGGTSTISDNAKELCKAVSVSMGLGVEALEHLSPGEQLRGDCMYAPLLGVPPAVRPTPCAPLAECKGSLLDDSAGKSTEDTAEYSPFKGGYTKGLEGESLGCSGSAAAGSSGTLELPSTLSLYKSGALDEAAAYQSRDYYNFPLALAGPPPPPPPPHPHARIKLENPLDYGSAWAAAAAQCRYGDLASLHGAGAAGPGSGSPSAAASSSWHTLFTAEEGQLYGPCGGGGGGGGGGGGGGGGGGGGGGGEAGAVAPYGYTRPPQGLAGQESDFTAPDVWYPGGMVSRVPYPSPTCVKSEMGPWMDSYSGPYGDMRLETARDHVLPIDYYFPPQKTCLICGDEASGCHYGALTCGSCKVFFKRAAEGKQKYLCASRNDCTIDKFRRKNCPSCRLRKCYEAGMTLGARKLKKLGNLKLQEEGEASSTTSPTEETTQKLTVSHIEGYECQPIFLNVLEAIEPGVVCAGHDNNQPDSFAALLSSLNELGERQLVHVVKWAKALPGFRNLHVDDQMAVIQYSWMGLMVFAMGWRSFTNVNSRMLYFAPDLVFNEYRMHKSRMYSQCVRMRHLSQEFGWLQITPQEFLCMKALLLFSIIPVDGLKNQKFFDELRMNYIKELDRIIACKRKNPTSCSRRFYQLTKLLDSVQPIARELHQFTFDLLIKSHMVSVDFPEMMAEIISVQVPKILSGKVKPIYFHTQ
Experiment: Androgen Receptor ELISA assay (PathScan AR ELISA) in VCaP cells: AR degradation, Dmax and DC50
Format: cell-based
Details: VCaP cells (Table 32); for Dmax: VCaP, highest percentage of Androgen Receptor degradation observed, read-out: VCaP Dmax (%); for DC50: concentration that caused 50% Androgen Receptor degradation, read-out: VCaP DC50
In short: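 VCaP cells, 30,000/well, grown ≥3 days in phenol red-free RPMI with 5% charcoal-stripped FBS; compound added in 0.1% DMSO with 0.1 nM R1881, 7 half-log doses, 24 h. Lysate AR quantified by PathScan sandwich ELISA, HRP/TMB read at 450 nm, giving DC50 and Dmax.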

Cc1ncsc1-c1ccc(CNC(=O)[C@@H]2C[C@@H](O)CN2C(=O)[C@@H](NC(=O)COCCCCCOc2ccc(C(=O)N[C@H]3C(C)(C)[C@H](Oc4ccc(C#N)c(C(F)(F)F)c4)C3(C)C)cc2)C(C)(C)C)cc1 [Example 155, (2S,4R)-1-[(2S)-3,3-dimethyl-2-(2-{[5-(4-{[trans-3-[4-cyano-3-(trifluoromethyl)phenoxy]-2,2,4,4-tetramethylcyclobutyl]carbamoyl}phen-oxy)pentyl]oxy}acetamido)butanoyl]-4-hydroxy-N-{[4-(4-methyl-1,3-thiazol-5-yl)phenyl]methyl}pyrrolidine-2-carboxamide]
Dmax: > 71%
DC50: < 0.05 µM

Cc1ncsc1-c1ccc(CNC(=O)[C@@H]2C[C@@H](O)CN2C(=O)[C@@H](NC(=O)CO[C@H](C)CCCCOc2ccc(C(=O)N[C@H]3C(C)(C)[C@H](Oc4ccc(C#N)c(Cl)c4)C3(C)C)cc2)C(C)(C)C)cc1 [Example 158, (2S,4R)-1-[(2S)-3,3-dimethyl-2-(2-{[(2R)-6-(4-{[trans-3-(3-chloro-4-cyanophenoxy)-2,2,4,4-tetramethylcyclobutyl]carbamoyl}phen-oxy)hexan-2-yl]oxy}acetamido)butanoyl]-4-hydroxy-N-{[4-(4-methyl-1,3-thiazol-5-yl)phenyl]methyl}pyrrolidine-2-carboxamide]
Dmax: > 71%
DC50: < 0.05 µM

Cc1ncsc1-c1ccc(CNC(=O)[C@@H]2C[C@@H](O)CN2C(=O)[C@@H](NC(=O)CO[C@@H](C)CCCCOc2ccc(C(=O)N[C@H]3C(C)(C)[C@H](Oc4ccc(C#N)c(Cl)c4)C3(C)C)cc2)C(C)(C)C)cc1 [Example 159, (2S,4R)-1-[(2S)-3,3-dimethyl-2-(2-{[(2S)-6-(4-{[trans-3-(3-chloro-4-cyanophenoxy)-2,2,4,4-tetramethylcyclobutyl]carbamoyl}phen-oxy)hexan-2-yl]oxy}acetamido)butanoyl]-4-hydroxy-N-{[4-(4-methyl-1,3-thiazol-5-yl)phenyl]methyl}pyrrolidine-2-carboxamide]
Dmax: > 71%
DC50: < 0.05 µM

Cc1ncsc1-c1ccc(CNC(=O)[C@@H]2C[C@@H](O)CN2C(=O)[C@@H](NC(=O)COCCCC[C@@H](C)Oc2ccc(C(=O)N[C@H]3C(C)(C)[C@H](Oc4ccc(C#N)c(Cl)c4)C3(C)C)cc2)C(C)(C)C)cc1 [Example 160, (2S,4R)-1-[(2S)-3,3-dimethyl-2-(2-{[(5S)-5-(4-{[trans-3-(3-chloro-4-cyanophenoxy)-2,2,4,4-tetramethylcyclobutyl]carbamoyl}phen-oxy)hexyl]oxy}acetamido)butanoyl]-4-hydroxy-N-{[4-(4-methyl-1,3-thiazol-5-yl)phenyl]methyl}pyrrolidine-2-carboxamide]
Dmax: > 71%
DC50: < 0.05 µM

Cc1ncsc1-c1ccc(CNC(=O)[C@@H]2C[C@@H](O)CN2C(=O)[C@@H](NC(=O)COCCCC[C@H](C)Oc2ccc(C(=O)N[C@H]3C(C)(C)[C@H](Oc4ccc(C#N)c(Cl)c4)C3(C)C)cc2)C(C)(C)C)cc1 [Example 161, (2S,4R)-1-[(2S)-3,3-dimethyl-2-(2-{[(5R)-5-(4-{[trans-3-(3-chloro-4-cyanophenoxy)-2,2,4,4-tetramethylcyclobutyl]carbamoyl}phen-oxy)hexyl]oxy}acetamido)butanoyl]-4-hydroxy-N-{[4-(4-methyl-1,3-thiazol-5-yl)phenyl]methyl}pyrrolidine-2-carboxamide]
Dmax: > 71%
DC50: < 0.05 µM

CC(C)(C)[C@H](NC(=O)COCCOCCCCOc1ccc(C(=O)N[C@H]2C(C)(C)[C@H](Oc3ccc(C#N)c(Cl)c3)C2(C)C)cc1)C(=O)N1C[C@H](O)C[C@H]1C(=O)NCc1ccc(-c2cncs2)cc1 [Example 162, (2S,4R)-1-[(2S)-3,3-dimethyl-2-(2-{2-[4-(4-{[trans-3-(3-chloro-4-cyanophenoxy)-2,2,4,4-tetramethylcyclobutyl]carbamoyl}phenoxy)butoxy]ethoxy}acetamido)butanoyl]-4-hydroxy-N-{[4-(1,3-thiazol-5-yl)phenyl]methyl}pyrrolidine-2-carboxamide]
Dmax: > 71%
DC50: < 0.05 µM

Cc1ncoc1-c1ccc(CNC(=O)[C@@H]2C[C@@H](O)CN2C(=O)[C@@H](NC(=O)COCCCCOc2ccc(C(=O)N[C@H]3C(C)(C)[C@H](Oc4ccc(C#N)c(Cl)c4)C3(C)C)cc2)C(C)(C)C)cc1 [Example 164, (2S,4R)-1-[(2S)-3,3-dimethyl-2-{2-[4-(4-{[trans-3-(3-chloro-4-cyanophenoxy)-2,2,4,4-tetramethylcyclobutyl]carbamoyl}phenoxy)butoxy]acetamido}butanoyl]-4-hydroxy-N-{[4-(4-methyl-1,3-oxazol-5-yl)phenyl]methyl}pyrrolidine-2-carboxamide]
Dmax: > 71%
DC50: < 0.05 µM

Cc1ncsc1-c1ccc(CNC(=O)[C@@H]2C[C@@H](O)CN2C(=O)[C@@H](NC(=O)COCCCCOc2ccc(C(=O)N[C@H]3C(C)(C)[C@H](Oc4ccc(C#N)c(C(F)(F)F)c4)C3(C)C)cc2)C(C)(C)C)cc1 [Example 165, (2S,4R)-1-[(2S)-3,3-dimethyl-2-{2-[4-(4-{[trans-3-[4-cyano-3-(trifluoromethyl)phenoxy]-2,2,4,4-tetramethylcyclobutyl]carbamoyl}phenoxy)butoxy]acetamido}butanoyl]-4-hydroxy-N-{[4-(4-methyl-1,3-thiazol-5-yl)phenyl]methyl}pyrrolidine-2-carboxamide]
Dmax: > 71%
DC50: < 0.05 µM

Cc1ncoc1-c1ccc(CNC(=O)[C@@H]2C[C@@H](O)CN2C(=O)[C@@H](NC(=O)COCCCCOc2ccc(C(=O)N[C@H]3C(C)(C)[C@H](Oc4ccc(C#N)c(C(F)(F)F)c4)C3(C)C)cc2)C(C)(C)C)cc1 [Example 166, (2S,4R)-1-[(2S)-3,3-dimethyl-2-{2-[4-(4-{[trans-3-[4-cyano-3-(trifluoromethyl)phenoxy]-2,2,4,4-tetramethylcyclobutyl]carbamoyl}phenoxy)butoxy]acetamido}butanoyl]-4-hydroxy-N-{[4-(4-methyl-1,3-oxazol-5-yl)phenyl]methyl}pyrrolidine-2-carboxamide]
Dmax: 51 to 70%
DC50: < 0.05 µM

Cc1ncsc1-c1ccc([C@H](C)NC(=O)[C@@H]2C[C@@H](O)CN2C(=O)[C@@H](NC(=O)COCCCCOc2ccc(C(=O)N[C@H]3C(C)(C)[C@H](Oc4ccc(C#N)c(Cl)c4)C3(C)C)cc2)C(C)(C)C)cc1 [Example 167, (2S,4R)-1-[(2S)-3,3-dimethyl-2-{2-[4-(4-{[trans-3-(3-chloro-4-cyanophenoxy)-2,2,4,4-tetramethylcyclobutyl]carbamoyl}phenoxy)butoxy]acetamido}butanoyl]-4-hydroxy-N-[(1S)-1-[4-(4-methyl-1,3-thiazol-5-yl)phenyl]ethyl]pyrrolidine-2-carboxamide]
Dmax: > 71%
DC50: < 0.05 µM

Cc1ncoc1-c1ccc([C@H](C)NC(=O)[C@@H]2C[C@@H](O)CN2C(=O)[C@@H](NC(=O)COCCCCOc2ccc(C(=O)N[C@H]3C(C)(C)[C@H](Oc4ccc(C#N)c(Cl)c4)C3(C)C)cc2)C(C)(C)C)cc1 [Example 168, (2S,4R)-1-[(2S)-3,3-dimethyl-2-{2-[4-(4-{[trans-3-(3-chloro-4-cyanophenoxy)-2,2,4,4-tetramethylcyclobutyl]carbamoyl}phenoxy)butoxy]acetamido}butanoyl]-4-hydroxy-N-[(1S)-1-[4-(4-methyl-1,3-oxazol-5-yl)phenyl]ethyl]pyrrolidine-2-carboxamide]
Dmax: > 71%
DC50: < 0.05 µM

Cc1ncsc1-c1ccc([C@@H](C)NC(=O)[C@@H]2C[C@@H](O)CN2C(=O)[C@@H](NC(=O)COCCCCOc2ccc(C(=O)N[C@H]3C(C)(C)[C@H](Oc4ccc(C#N)c(Cl)c4)C3(C)C)cc2)C(C)(C)C)cc1 [Example 171, (2S,4R)-1-[(2S)-3,3-dimethyl-2-{2-[4-(4-{[trans-3-(3-chloro-4-cyanophenoxy)-2,2,4,4-tetramethylcyclobutyl]carbamoyl}phenoxy)butoxy]acetamido}butanoyl]-4-hydroxy-N-[(1R)-1-[4-(4-methyl-1,3-thiazol-5-yl)phenyl]ethyl]pyrrolidine-2-carboxamide]
Dmax: 26 to 50%
DC50: < 0.05 µM
